Measurements from publication PMC3816012 (Structure (London, England : 1993), 2013).

Target: IcmR-IcmQ (Legionella pneumophila, UniProt O54635)

With NC(=O)c1ccc[n+]([C@@H]2O[C@H](COP(=O)(O)OP(=O)(O)OC[C@H]3O[C@@H](n4cnc5c(N)ncnc54)[C@H](O)[C@@H]3O)[C@@H](O)[C@H]2O)c1 [NAD+] as the molecule, how does the “filter binding assay, 32P-labelled NAD+” value read?
The value was “A similar binding profile was observed for wild type IcmR-IcmQ complexes”.
